# Experimental data taken from patent US20250090466A1, “DRUG DELIVERY COMPOSITIONS AND DEVICES” (Ohio State Innovation Foundation, priority 2022, published 2025).
# Columns and labels:
# [1] = Rose Bengal release from dense PCL capsules with silicone oil carriers into PBS; type: physicochemical; settings: Silikon 1000 in dense PCL capsule
# [2] = assumed input value, ref (20); cited from earlier work
compound,measurement,setting,value
"O=C([O-])c1c(Cl)c(Cl)c(Cl)c(Cl)c1-c1c2cc(I)c(=O)c(I)c-2oc2c(I)c([O-])c(I)cc12.[Na+].[Na+] [Rose Bengal, Rose Bengal sodium salt]",dissolution of Rose Bengal in hydrophobic silicone oil,[1],never dissolves in the oil
same,RB diffusivity in PBS,[2],4.8×10^−10 m^2 s^−1
